Experimental data published in paper PMC9694488, “Amyloid beta and its naturally occurring N-terminal variants are potent activators of human and mouse formyl peptide receptor 1” (The Journal of Biological Chemistry, 2022).
“Also recorded” adds a separate entry of the source.

Columns and labels:
FPR1 and FPR2 = conditions: cited from earlier work
hFPR3 = assay: Ca2+ imaging, HEK293T transiently transfected with hFPR3; conditions: for threshold for minimal detectable activation, hFPR3: Ca2+ imaging, transfected HEK293T + Gα16, Calbryte 520, C1 buffer pH 7.2, n = 3, N = 1; for activation of hFPR3: 10 nM, n = 1, N = 3 (Fig. S6C)
Method: (§2) All peptides were thawed at room temperature approximately 1 h before each functional experiment, as this time was needed to prepare the compound plates for each measurement.
(§3) HEK293T cells (ATCC) were cultured in Dulbecco’s Modified Eagle’s medium (DMEM, Biowest) supplemented with 10% (v/v) heat-inactivated fetal calf serum (FCS, Pan Biotech), 1 unit/ml penicillin-streptomycin (Biowest), and 2 mM L-glutamine (Biowest) until 80% confluence. For transfection, approximately 2000 cells were seeded in each well of poly-D-lysine–coated (PDL) (10 μg/ml in PBS, Sigma) black optical 96-well μCLEAR-plates (Greiner Bio-One). Cells were transfected after 24 h using jetPEI (Polyplus-transfection SA) with 0.125 μg of DNA plasmids encoding the respective receptors and equal amounts of a plasmid encoding the G protein subunit Gα16 since this subunit is needed to trigger FPR-dependent calcium signals in HEK293 cells ([50], [70]). The medium of transfected cells was changed 24 h after transfection. For mock transfections, the proportion of the FPR-containing plasmids were substituted by an empty pcDNA3.1 vector.
(§4) Cell population responses of transfected HEK293T cells and U87 cells were recorded using a Flexstation III microplate reader (Molecular Devices). Briefly, cells were incubated with 2 μM Calbryte 520 AM (AAC Bioquest) for 2 h at room temperature in C1 assay buffer with 5 mM glucose (Carl Roth). Before each experiment, cells were rinsed three times with C1. Experiments with HEK293T cells were conducted 48 h after transfection, while experiments with U87 cells were performed 24 h after seeding. Acquisition of baseline fluorescence was performed for 25 s before ligand application, and cell population response was measured for 125 s after application.

mFpr2 = assay: Ca2+ imaging, HEK293T transiently transfected with mFpr2; format: cell-based, mouse; conditions: n = 3, N = 1; for threshold for minimal detectable activation, mFpr2: Ca2+ imaging, transfected HEK293T + Gα16, Calbryte 520, C1 buffer pH 7.2; for mFpr2 response concentration: concentration response curves
Method: as §2, §3, §4

mFpr1 = assay: Ca2+ imaging, HEK293T transiently transfected with mFpr1; format: cell-based, mouse; conditions: n = 3, N = 1; for threshold for minimal detectable activation, mFpr1: Ca2+ imaging, transfected HEK293T + Gα16, Calbryte 520, C1 buffer pH 7.2; for sensitivity relative to full-length Aβ1-42, mFpr1: concentration response curves
hFPR1, hFPR2, hFPR3 = assay: Ca2+ imaging, human FPRs taken together; format: cell-based; conditions: transfected HEK293T
hFPR2 = assay: Ca2+ imaging, HEK293T transiently transfected with hFPR2; format: cell-based, human; conditions: for threshold for minimal detectable activation, hFPR2: Ca2+ imaging, transfected HEK293T + Gα16, Calbryte 520, C1 buffer pH 7.2; for threshold for minimal detectable activation, hFPR2 / hFPR2 response concentration: n = 3, N = 1; for hFPR2 response concentration: concentration response curves
Method: as §2, §3, §4

hFPR1 = assay: Ca2+ imaging, HEK293T transiently transfected with hFPR1; format: cell-based, human; conditions: for threshold for minimal detectable activation, hFPR1: Ca2+ imaging; for threshold for minimal detectable activation, hFPR1 / sensitivity relative to full-length Aβ1-42, hFPR1: n = 3, N = 1; for sensitivity relative to full-length Aβ1-42, hFPR1: concentration response curves
glial cells = conditions: cited from earlier work
Text: (§1) In summary, our study provides a systematic overview over the capability of different mouse and human FPRs to interact with Aβ in different buffer systems. To our knowledge, we are the first to report an activation of hFPR3 by Aβ and the first to identify N-abridged Aβ fragments as activators of FPRs.

U87 cells [1] = assay: Chemotaxis assay, U87 cells; format: cell-based, human; conditions: n = 3, N = 1; for migration (chemotaxis) of U87 cells: IncuCyte S3, ClearView plate, 24 h, 0.5% FCS; for migration of U87 cells towards receptor subtype-specific activator: 10 nM
Method: Cell migration assays were performed and analyzed with an IncuCyte S3 Life Cell Imaging System (EssenBio Science). […] Approximately, 1000 cells were placed into the top chamber of each well of a 96-well ClearView Plate (EssenBioscience). Chemoattractants were mixed in 200 μl medium and then placed in the corresponding bottom chambers. Image acquisition was performed hourly for 24 h on both sides of a membrane separating the top and bottom chambers. Subsequent analysis was performed using the IncuCyte S3 software.

U87 cells [2] = assay: Ca2+ imaging, U87 cells; conditions: for Ca2+ response of U87 cells to receptor subtype-specific activator: 10 nM, n = 3, N = 3
Method: Peptides in HBSS or Tris–NaCl were dissolved in an ultrasonic bath as described above. […] The Aβ17-40 peptide used throughout the main text was purchased from Anaspec/MoBiTec and validated with Aβ17-40 peptides from Sigma-Aldrich and Synpeptide. Aβ11-40 was obtained from Peptides&Elephants. […] Tert-Boc-FLFL (tBoc2) was purchased from Bachem and dissolved in DMSO at 30 mM. f-MLFYFS (Psy-SP6) and f-MAMKKL (Sal-SP4) were obtained from VCPBIO and dissolved at 10 mM in DMSO (Psy-SP6) or at 1 mM in C1 (SP4), respectively. WKWMVm-NH2 and WKWMVm-CHO were purchased from Proteogenix and VCPBIO, respectively, and dissolved as 1 mM stock solutions in C1. fMLF was purchased from Sigma-Aldrich and also dissolved at 1 mM in C1. All peptides were thawed at room temperature approximately 1 h before each functional experiment, as this time was needed to prepare the compound plates for each measurement.
U87 MG cells (CLS) were cultured in Minimum Essential medium (Biowest) supplemented with 10% (v/v) heat-inactivated FCS (Pan Biotech), 1 unit/ml penicillin-streptomycin (Biowest), 2 mM L-glutamine (Biowest), and 1 unit/ml non-essential amino acids (Biowest) until 50 to 60% confluence. For calcium imaging and immunostaining, on average 2500 cells were seeded in each well of PDL-coated (10 μg/ml in PBS, Sigma) black optical 96-well μCLEAR-plates (Greiner Bio-One).
as §4

mouse and human FPR1 = assay: Ca2+ imaging, HEK293T with mouse and human FPR1 taken together; format: cell-based
human and mouse FPRs [3] = assay: Ca2+ imaging, FPR-transfected HEK293T (several human and mouse FPRs taken together); format: cell-based; conditions: n = 3, N = 1; for Ca2+ responses on FPRs: 5 μM
Method: as §2, §3, §4

FPR1 = conditions: cited from earlier work
Text: as §1

APP/PS1 mice = conditions: cited from earlier work
Text: The activation of PRRs by Aβ has become a recent focus in AD research because they have a special ability to potently trigger the reactive state ([14], [25]). Among these PRRs, FPRs are one of the promising targets for AD research ([12]). They belong to a small gene family of G protein–coupled receptors with three members in humans and seven in mice ([26]). FPRs are primarily expressed in the innate and adaptive immune system, where they contribute to the detection and elimination of bacterial pathogens ([27], [28], [29], [30]). However, they are also expressed in a number of cell types in the ... || In summary, our study provides a systematic overview over the capability of different mouse and human FPRs to interact with Aβ in different buffer systems. To our knowledge, we are the first to report an activation of hFPR3 by Aβ and the first to identify N-abridged Aβ fragments as activators of FPRs.

human and mouse FPRs [4] = conditions: control ligand, 10 μM; cited from earlier work
Method: Cell population responses of transfected HEK293T cells and U87 cells were recorded using a Flexstation III microplate reader (Molecular Devices). Briefly, cells were incubated with 2 μM Calbryte 520 AM (AAC Bioquest) for 2 h at room temperature in C1 assay buffer with 5 mM glucose (Carl Roth). Before each experiment, cells were rinsed three times with C1. Experiments with HEK293T cells were conducted 48 h after transfection, while experiments with U87 cells were performed 24 h after seeding.

U87 cells [5] = assay: Ca2+ imaging cross-desensitization, U87 cells; format: cell-based, human; conditions: n = 1, N = 3
Text: Left: Representative image of gel electrophoresis after reverse transcription polymerase chain reaction with primers for all hFPRs. Right: Quantification of complementary DNA for all FPRs obtained through reverse transcription quantitative polymerase chain reaction, n = 5, N = 2. One-way ANOVA test, Dunnett post hoc test. B, left: representative immunocytochemistry staining of U87 cells and transfected HEK293T cells with FPR subtype–specific antibodies (red) and nuclei staining (blue). For visibility, brightness and contrast were adjusted for U87 cells and HEK293T cells differently; for absolute intensity comparison pictures with equal settings for exposure time, brightness and contrast pictures are shown in Figure S5. Scale bars indicate 100 μm. Right: Quantification of the mean FPR staining in U87 cells (green) in comparison to FPR-transfected HEK293T cells (red). Analysis was performed on images acquired with the same settings. n = 2, N = 5 for U87 cells and n = 2, N = 2 for HEK293T cells. One-way ANOVA test, Tukey post hoc test. […] One-way ANOVA test, Dunnett post hoc test. […] Representative […] traces (left) and mean Ca^2+ peak responses (right) to a secondary Aβ17-40 stimulus after pre-application of SP4 or SP6 as a first stimulus, n = 1, N = 3; t test. […] One-way ANOVA test, Tukey post hoc test. All Error bars, S.D. ∗p ≤ 0.05, ∗∗p ≤ 0.01, ∗∗∗p ≤ 0.001; ns, no significance. […]

[6] = transfected HEK293T + Gα16, Calbryte 520, assay buffer C1 pH 7.2, Flexstation III, peptide stock 5 mM in DMSO
[7] = 10 μM tBoc2 co-applied with 5 μM Aβ17-40 (Fig. S6B)

C[S+](C)[O-] [DMSO, dimethyl sulfoxide]
agonism at FPR1 and FPR2 (FPR1 and FPR2): agonist for FPR1 and FPR2

Aβ1-40: Amyloid beta peptide, human WT sequence, from Anaspec/MoBiTec
threshold for minimal detectable activation, hFPR3 (hFPR3): 3 µM
threshold for minimal detectable activation, mFpr2 (mFpr2): 5 µM
threshold for minimal detectable activation, mFpr1 (mFpr1): 500 nM
response of hFPRs (in addition to hFPR2) (hFPR1, hFPR2, hFPR3): all other hFPRs also responded
threshold for minimal detectable activation, hFPR2 (hFPR2): 3 µM
threshold for minimal detectable activation, hFPR1 (hFPR1; transfected HEK293T + Gα16, Calbryte 520, assay buffer C1 pH 7.2, peptide stock 30 μM in C1): 3000 nM

Aβ11-40: N-abridged naturally occurring Aβ variant, from Peptides&Elephants
activation of glial cells (glial cells): shown to activate glial cells
threshold for minimal detectable activation, hFPR3 (hFPR3): 1 µM
migration (chemotaxis) of U87 cells (U87 cells [1]): Aβ11-40 but not Aβ17-40 evoked cell migration; also recorded: only Aβ11-40 but not Aβ17-40 induced migration; also recorded: Aβ11-40– but not Aβ17-40–induced chemotaxis of U87 cells
threshold for minimal detectable activation, mFpr2 (mFpr2): 1 µM
mFpr2 response concentration (mFpr2): only responded to micromolar concentrations
Ca2+ response of U87 cells (U87 cells [2]; n = 3, N = 1): induced a strong calcium flux; also recorded: pronounced activation of U87 cells
U87 concentration response curve compared with FPR-transfected HEK293T cells (U87 cells [2]; n = 3, N = 1): clear correlation with the hFPR1 response; also recorded: remarkably similar to hFPR1
threshold for minimal detectable activation, mFpr1 (mFpr1): 30 nM
sensitivity relative to full-length Aβ1-42, mFpr1 (mFpr1): more than 10 fold
response of hFPRs (in addition to hFPR2) (hFPR1, hFPR2, hFPR3): all other hFPRs also responded
activation of mouse and human FPR1 (in words) (mouse and human FPR1): very potent activators of mouse and human FPR1, acting at nanomolar concentrations; also recorded: drastically lower concentrations than longer peptides
threshold for minimal detectable activation, hFPR2 (hFPR2): 1 µM
hFPR2 response concentration (hFPR2): only responded to micromolar concentrations
Ca2+ responses on FPRs (human and mouse FPRs [3]): elicited responses on all FPRs that we could previously activate with the full-length Aβ1-42
threshold for minimal detectable activation, hFPR1 (hFPR1; [6]): 100 nM
sensitivity relative to full-length Aβ1-42, hFPR1 (hFPR1): more than 10 fold

Aβ17-40: N-abridged naturally occurring Aβ variant, from Anaspec, validated with Sigma-Aldrich and Synpeptide peptides (LVFFAEDVGSNKGAIIGLMVGGVV; Amyloid-beta protein 40; UniProt P05067 688-711, looked up, fragment)
activation of glial cells (glial cells): shown to activate glial cells
threshold for minimal detectable activation, hFPR3 (hFPR3): 1 µM
migration (chemotaxis) of U87 cells (U87 cells [1]): Aβ11-40 but not Aβ17-40 evoked cell migration; also recorded: only Aβ11-40 but not Aβ17-40 induced migration; also recorded: Aβ11-40– but not Aβ17-40–induced chemotaxis of U87 cells
threshold for minimal detectable activation, mFpr2 (mFpr2): 1 µM
mFpr2 response concentration (mFpr2): only responded to micromolar concentrations
Ca2+ response of U87 cells (U87 cells [2]; n = 3, N = 1): induced a strong calcium flux; also recorded: pronounced activation of U87 cells
U87 concentration response curve compared with FPR-transfected HEK293T cells (U87 cells [2]; n = 3, N = 1): clear correlation with the hFPR1 response; also recorded: remarkably similar to hFPR1
threshold for minimal detectable activation, mFpr1 (mFpr1): 30 nM
sensitivity relative to full-length Aβ1-42, mFpr1 (mFpr1): more than 10 fold
response of hFPRs (in addition to hFPR2) (hFPR1, hFPR2, hFPR3): all other hFPRs also responded
activation of mouse and human FPR1 (in words) (mouse and human FPR1): very potent activators of mouse and human FPR1, acting at nanomolar concentrations; also recorded: drastically lower concentrations than longer peptides
threshold for minimal detectable activation, hFPR2 (hFPR2): 1 µM
hFPR2 response concentration (hFPR2): only responded to micromolar concentrations
susceptibility of FPR responses to manufacturer-dependent effects (human and mouse FPRs [3]; 5 μM Aβ17-40 from Anaspec, Synpeptide, Sigma-Aldrich): less susceptible to manufacturer-dependent effects than full length Aβ
Ca2+ responses on FPRs (human and mouse FPRs [3]): elicited responses on all FPRs that we could previously activate with the full-length Aβ1-42
threshold for minimal detectable activation, hFPR1 (hFPR1; [6]): 100 nM
sensitivity relative to full-length Aβ1-42, hFPR1 (hFPR1): more than 10 fold

Aβ17-43: Aβ fragment of earlier studies (LVFFAEDVGSNKGAIIGLMVGGVVIAT; Amyloid-beta protein 42; UniProt P05067 688-714, looked up, fragment)
activation of human glial cells (glial cells; human glial cells): only lead to a partial activation of human glial cells

Tert-Boc-FLFL [tBoc2, reference compound]
binding preference (FPR1): preferentially binds to FPR1
antagonism at FPR3 (hFPR3; 10 μM tBoc2 co-applied with 5 μM Aβ17-40, n = 1, N = 2): does not inhibit FPR3
effect on microglia reactivity, neuronal pathology and cognition (APP/PS1 mice): reduced microglia reactivity, decreased neuronal pathology, and improved cognitive performance
inhibition of U87 Ca2+ response to Aβ11-40 / Aβ17-40 (U87 cells [2]; 10 μM tBoc2 vs 5 μM Aβ11-40 or Aβ17-40, n = 3, N = 1): completely abolished the responses
antagonism at FPR2 (hFPR2; [7]): competitive antagonist of FPR1 and FPR2
antagonism at FPR1 (hFPR1; [7]): competitive antagonist of FPR1 and FPR2

WKWMVm-CHO
activation of human and mouse FPRs (human and mouse FPRs [4]): potent activators of all three human and mouse FPRs

WKWMVm-NH2
activation of human and mouse FPRs (human and mouse FPRs [4]): potent activators of all three human and mouse FPRs

f-MAMKKL [SP4, reference compound]
activation of hFPR3 (hFPR3): would not activate hFPR3
effect of pre-application on U87 Ca2+ response to secondary Aβ17-40 stimulus (U87 cells [5]): not influenced by pre-application of the FPR2-specific agonist SP4
migration of U87 cells towards receptor subtype-specific activator (U87 cells [1]): do not respond to the hFPR2 agonist SP4; also recorded: not towards the FPR2-specific SP4
Ca2+ response of U87 cells to receptor subtype-specific activator (U87 cells [2]): not to the hFPR2-specific SP4 stimulus

f-MLFYFS [SP6, reference compound]
activation of hFPR3 (hFPR3): would not activate hFPR3
effect of pre-application on U87 Ca2+ response to secondary Aβ17-40 stimulus (U87 cells [5]): abolished by the FPR1 activator SP6; also recorded: absent after pre-application of the FPR1-specific agonist SP6
migration of U87 cells towards receptor subtype-specific activator (U87 cells [1]): migrate towards the hFPR1-stimulus SP6; also recorded: only migrated towards the FPR1-specific SP6
Ca2+ response of U87 cells to receptor subtype-specific activator (U87 cells [2]): U87 cells respond to the potent hFPR1 activator SP6; also recorded: only responded to the hFPR1-specific SP6 stimulus with a calcium signal
